The source of these data is patent US20220125747A1, “APPLICATION OF ACTIVE INGREDIENT WGX50 IN ZANTHOXYLUM BUNGEANUM EXTRACT” (Shanghai Jiao Tong University, priority 2020, published 2022).

Common to all, as to format: cell-based
One data set has as its system CD44. The data set is described as follows: moisturizing gene test based on keratinocytes (qRT-PCR), CD44. The conditions noted are these: 5 μM, 24 h. The method, then: (§1) 1. Moisturizing gene test based on keratinocytes. First, the cytotoxicity of keratinocytes is tested, and then the experimental design is carried out, and a blank control group and a sample group are set up. The detection indexes are AQP3 (aquaporin), CD44 (cell-surface glycoproteins), Filaggrin (protein), claudin-1 (tight junction protein) and HAS2 (hyaluronic acid synthetase). RNA extraction, reverse transcription and fluorescence quantitative PCR are carried out, and the results are calculated by 2^−ΔΔCT method.
(§2) Embodiment 3, moisturizing gene test based on keratinocytes.
(§3) Gene detection process: after incubation for 24 hours, the cells are sampled, and RNA extraction, reverse transcription and fluorescence quantitative PCR detection are carried out according to the kit instruction, and the results are calculated by 2^−ΔΔΔCT method. When statistical analysis is carried out by T-Test method, significance is represented by *, P-value<0.05 is represented by *, and P-value<0.01 is represented by * *.
(In general: Real-time PCR tracks product formation cycle by cycle.)

For another data set, the system named is AQP3 gene. In words: moisturizing gene test based on keratinocytes (qRT-PCR), AQP3. The conditions noted are these: 5 μM, 24 h. The method, then: as §1, §2
AQP3 aquaporin in the detection index, located on the cell membrane, has the function of transporting water and plays an important role in the process of skin moisturizing.
as §3

In a further data set the test system is TYR. In words: whitening gene test based on melanocytes (qRT-PCR), TYR. The conditions noted are these: 100 μM, 24 h. The method, then: (§4) 2. Whitening gene test based on melanocytes. First, the cytotoxicity of melanocytes is tested, and then the experimental design is carried out, and a blank control group and a sample group are set up. The detection indexes are MC1R (melanocortin receptor), MITF (melanogenesis transcription factor), TYR (melanin synthesis and transport related gene) and TYP-1 (tyrosinase related protein). RNA extraction, reverse transcription and fluorescence quantitative PCR are carried out, and the results are calculated by 2^−ΔΔCT method.
(§5) Embodiment 4, whitening gene test based on melanocytes.
(§6) Gene detection process: after 24 hours of incubation, the cells are sampled, and RNA extraction, reverse transcription and fluorescence quantitative PCR detection are carried out according to the kit instructions, and the results are calculated by 2^−ΔΔΔCT method. When statistical analysis is carried out by T-Test method, significance is represented by *, P-value<0.05 is represented by *, and P-value<0.01 is represented by * *.

The next data set concerns HAS2. The data set is described as follows: moisturizing gene test based on keratinocytes (qRT-PCR), HAS2. The conditions noted are these: 5 μM, 24 h. The method, then:
as §1, §2, §3

The next data set deals with keratinocytes. The data set is described as follows: cytotoxicity test based on keratinocytes (MTT). The conditions noted are these: for Cell vitality Mean: keratinocytes, 24 hours, MTT. The method, then: Embodiment 1, cytotoxicity test based on keratinocytes. Set up 8 concentration gradients, and set up 3 repeating holes under each concentration. At the same time, solvent control hole, zero adjustment hole (KC2500) and positive control hole (PC, 4% Dimethyl sulfoxide, DMSO) are set up in the experiment. After incubation for 24 hours, the cell viability is detected by MTT method, and the maximum safe concentration of cell administration is screened. The MTT test results are shown in Table 1, in which the GraphPad Prism Program software is used for mapping, and T-test statistical analysis is used among all groups. P-value<0.05 indicates significant difference, and P-value<0.01 indicates extremely significant difference. According to the results of MTT assay, the concentration near the inflection point of cell vitality is selected, and after incubation and culture for 24 hours, the cell morphology is observed under the inverted microscope and photographed (20×), and the morphological detection results are shown in FIG. 2.

A further data set deals with TNFα. The data set is described as follows: anti-inflammatory test of keratinocytes stimulated by UVB, TNFα ELISA. The conditions noted are these: for TNFα Decreased ratio (compared to NC) / TNFα Average concentration: 24 h; for TNFα Average concentration: ELISA of culture supernatant. From the text:
(§7) 3. Anti-inflammatory test based on UVB (ultraviolet radiation b) stimulation of keratinocytes. The blank control (oil-soluble), solvent control (oil-soluble), positive control and sample groups are grouped in the experiment. The detection indexes are TNFα (a pro-inflammatory factors, the NF-κB signaling pathway mediates and initiates the transcription of TNFα (abbreviation for tumor necrosis factor alpha), and after TNFα is synthesized, it binds to its receptor and in turn activates the NF-κB signaling pathway) and IL1-α (a pro-inflammatory factor being non-hydrophobic polypeptide, which is secreted out of cells after cell membrane damage, and then the pro-inflammatory factor binds to its corresponding receptor IL1R and activates NF-κB to induce inflammatory cascade reaction), the detection and analysis are performed according to the operating manual of the TNFα and IL1-α kits.
Embodiment 5, anti-inflammatory test of keratinocytes stimulated by UVB.
(§8) TNFα and IL1-α expression detection process: after 24 hours of incubation, the cell culture supernatant is collected, and the detection and analysis are performed according to the operating instructions of the TNFα and IL1-α kit. When using the T-Test method for statistical analysis, the NC group is compared with the BC group, and the significance is indicated by #, P-value<0.05 is indicated as #, P-value<0.01 is indicated as ##; sample group and positive control group are compared with NC group, and significance is represented by *, P-value<0.05 is represented by *, P-value<0.01 is represented by * *.
For orientation: An ELISA detects its analyte on a solid surface through an enzyme-linked reagent.

The next data set has as its system melanocytes. In words: cytotoxicity test based on melanocytes (MTT). The conditions noted are these: for Cell vitality Mean: melanocytes, 24 hours. The method, then: Embodiment 2, cytotoxicity test based on melanocytes. Set up 8 concentration gradients, and set up 3 repeating holes under each concentration. At the same time, solvent control well, Medium-254 well and positive control well (PC, 8% DMSO) are set up in the experiment. After incubation for 24 hours, the cell viability is detected by MTT method, and the maximum safe concentration of cell administration is screened.

For a further data set, the system named is MC1R. The data set is described as follows: whitening gene test based on melanocytes (qRT-PCR), MC1R. The conditions noted are these: 100 μM, 24 h. The method, then: as §4, §5, §6
Another data set has as its system MITF. In words: whitening gene test based on melanocytes (qRT-PCR), MITF. As to conditions: 100 μM, 24 h. The method, then:
as §4, §5, §6

A further data set concerns Claudin-1. In words: moisturizing gene test based on keratinocytes (qRT-PCR), Claudin-1. The conditions noted are these: 5 μM, 24 h. The method, then: as §1, §2, §3
In a further data set the test system is Filaggrin. In words: moisturizing gene test based on keratinocytes (qRT-PCR), Filaggrin. As to conditions: 5 μM, 24 h. The method, then:
as §1, §2, §3

Another data set deals with IL-1α. In words: anti-inflammatory test of keratinocytes stimulated by UVB, IL-1α ELISA. As to conditions: for IL-1α Decreased ratio (compared to NC) / IL-1α Average concentration: 24 h; for IL-1α Average concentration: ELISA of culture supernatant.
Source text: as §7, §8

Another data set relates to TRP-1. In words: whitening gene test based on melanocytes (qRT-PCR), TRP-1. As to conditions: 100 μM, 24 h. The method, then:
as §4, §5, §6

Where [1] appears, read: 5 μM, compared with the positive control group (so in the source), P-value<0.01.

SMILES strings stand for the structures.

As for `COc1ccc(CCNC(=O)/C=C/c2ccccc2)cc1OC` [WGX50, (E)-N[2-(3,4-dimethoxyphenyl)ethyl]-3-phenylacrylamide], the “CD44 Increased ratio (compared to BC)” value with CD44 is given as −21.90%. In the data set on CD44, the “CD44 gene expression Mean (2^−ΔΔCT)” value is on record as 0.785. In addition, in the data set with AQP3 gene (P-value<0.01), the “expression of AQP3 gene in keratinocytes compared with the blank control group” value is recorded as “significantly promotes”. The “AQP3 Increased ratio (compared to BC)” value in the data set with AQP3 gene (qRT-PCR) came out at 34.20%. Further, the “AQP3 gene expression Mean (2^−ΔΔCT)” value in the data set on AQP3 gene (qRT-PCR) worked out at 1.345. Moreover, the “expression of TYR gene in melanocytes compared with the blank control group” value in the data set with TYR (P-value<0.01) was “significantly inhibits”. In the data set with TYR (qRT-PCR), the “TYR Increased ratio (compared to BC)” value is given as 51.8%. Further, the “TYR gene expression Mean (2^−ΔΔCT)” value in the data set with TYR (qRT-PCR) was determined as 0.488. In addition, the “HAS2 Increased ratio (compared to BC)” value in the data set with HAS2 is recorded as −14.70%. Also, in the data set with HAS2, the “HAS2 gene expression Mean (2^−ΔΔCT)” value is recorded as 0.898. In the data set with keratinocytes (in the concentration range of 5 μM, MTT and morphological results), the cytotoxicity to keratinocytes result is on record as “no cytotoxicity”. Further, the “Cell vitality Mean” value with keratinocytes (0.5 μM) turned out to be 106.81%; in the data set on keratinocytes (1 μM), 93.72%; in the data set on keratinocytes (2.5 μM), 93.60%; in the data set on keratinocytes (5 μM) it was 93.01%; in the data set with keratinocytes (10 μM), 84.00%; in the data set on keratinocytes (25 μM) it was 66.77%. The “Cell vitality Mean” value in the data set with keratinocytes (50 μM) is 57.35%; with keratinocytes (100 μM), 50.36%; in the data set on melanocytes (0.5 μM), 105.78%; with melanocytes (1 μM), 99.02%; in the data set with melanocytes (2.5 μM) it was 96.68%; with melanocytes (5 μM), 95.56%. The “Cell vitality Mean” value is 99.51% in the data set on melanocytes (10 μM), 99.51% with melanocytes (25 μM), 108.86% in the data set with melanocytes (50 μM) and 96.62% in the data set with melanocytes (100 μM). In addition, in the data set with TNFα (5 μM), the “TNFα Decreased ratio (compared to NC)” value was 85%. Moreover, the “TNFα Average concentration” value in the data set with TNFα (5 μM) is 18.97 pg/mL. Further, the “secretion of TNFα” value in the data set with TNFα (setting [1]) was “decreases significantly”. Moreover, the cytotoxicity to melanocytes entry in the data set with melanocytes (in the concentration range of 100 μM) is recorded as “no cytotoxicity”. Also, the “expression of MC1R gene in melanocytes compared with the blank control group” value in the data set with MC1R (P-value<0.01) is on record as “significantly inhibits”. Further, the “MC1R Increased ratio (compared to BC)” value with MC1R (qRT-PCR) worked out at 47.2%. Further, the “MC1R gene expression Mean (2^−ΔΔCT)” value in the data set with MC1R (qRT-PCR) turned out to be 0.528. Besides, the “expression of MITF gene in melanocytes compared with the blank control group” value in the data set with MITF (P-value<0.01) is listed as “significantly inhibits”. In the data set on MITF (qRT-PCR), the “MITF Increased ratio (compared to BC)” value is recorded as 57.8%. Moreover, the “MITF gene expression Mean (2^−ΔΔCT)” value with MITF (qRT-PCR) amounted to 0.432. The “Claudin-1 Increased ratio (compared to BC)” value with Claudin-1 is 17.50%. For the same molecule, the “Claudin-1 gene expression Mean (2^−ΔΔCT)” value with Claudin-1 is 1.182. The “Filaggrin Increased ratio (compared to BC)” value in the data set with Filaggrin stood at 7.20%. In the data set on Filaggrin, the “Filaggrin gene expression Mean (2^−ΔΔCT)” value was 1.101. Further, the “IL-1α Decreased ratio (compared to NC)” value in the data set with IL-1α (5 μM) stood at 67%. For the same molecule, the “IL-1α Average concentration” value in the data set with IL-1α (5 μM) was found to be 43.65 pg/mL. For the same molecule, the “secretion of IL-1α” value in the data set with IL-1α (setting [1]) is “decreases significantly”. The “expression of TYP-1 gene in melanocytes compared with the blank control group” value in the data set with TRP-1 (P-value<0.01) is on record as “significantly inhibits”. Further, the “TRP-1 Increased ratio (compared to BC)” value with TRP-1 (qRT-PCR) worked out at 70.10%. The “TRP-1 gene expression Mean (2^−ΔΔCT)” value in the data set on TRP-1 (qRT-PCR) is on record as 0.304.
In the case of `C[C@@H]1C[C@H]2[C@@H]3CCC4=CC(=O)C=C[C@]4(C)[C@@]3(F)[C@@H](O)C[C@]2(C)[C@@]1(O)C(=O)CO` [PC, Dexamethasone, reference compound], in the data set on TNFα (100 μg/mL), the “TNFα Decreased ratio (compared to NC)” value worked out at 94% and the “TNFα Average concentration” value came to 8.34 pg/mL. For the same molecule, in the data set on TNFα (100 μg/mL, P-value<0.01), the “secretion of TNFα compared with the solvent control group” value is “decreases significantly”. In addition, in the data set on IL-1α (100 μg/mL), the “IL-1α Decreased ratio (compared to NC)” value is recorded as 29% and the “IL-1α Average concentration” value is reported as 93.97 pg/mL. In addition, in the data set on IL-1α (100 μg/mL, P-Value<0.05), the “secretion of IL-1α compared with the solvent control group” value was “decreases significantly”.
Consider `C[S+](C)[O-]` [DMSO, Dimethyl sulfoxide, reference compound], for which the figures for the “Cell vitality Mean” value in the data set with keratinocytes (positive control 4% DMSO) and in the data set on melanocytes (positive control 8% DMSO) were 30.27% and 24.23%, respectively.
